The source of these data is paper PMC8069016, “Matrix Effects of the Hydroethanolic Extract of Calyces of Physalis peruviana L. on Rutin Pharmacokinetics in Wistar Rats Using Population Modeling” (Pharmaceutics, 2021).

SMILES strings stand for the structures. Read-outs that look alike come from different tables or passages of the source.

The term AUC(0-inf) denotes total exposure, with the tail of the curve extrapolated. A higher AUC(0-inf) goes with more exposure. In general, MRT refers to a mean duration of stay, worked out from the concentration-time curve. One may read the half-life as how long it takes for the measured level to halve. The low end stands for rapid decline, the high end for slow decline.

Data set [1] in a line: Pharmacokinetics of rutin after intravenous administration, non-compartmental analysis. Conditions: for AUC(0-inf) / MRT / half-life / clearance / Vd: male, Wistar, rat, iv; for Vd: read-out: Vdss. The data set is classed as in vivo, Wistar rats. Here is the method: (§1) The PK studies of rutin, both pure and from the extract of calyces of P. peruviana, were carried out using 50 male Wistar rats (7–11 weeks old and 250–300 g) obtained from the animal facility of the Department of Pharmacy of the Universidad Nacional de Colombia. The animals were kept under constant temperature conditions (22 ± 1 °C), with light/dark cycles of 12 h. They were provided with water and food ad libitum and fasted for 12 h before the assays. This protocol was approved by the ethics committee of the science faculty (Act 06, 2015, project 40831, 22 June 2015).
For intravenous (i.v.) administration, the extract was prepared in sodium chloride solution (0.9% NaCl), vortexed, and sonicated 3–4 times for 15 min. Rutin was first dissolved in DMSO and then diluted in 0.9% NaCl. The clear solutions were administrated via the lateral tail vein of the rats. For the oral route (p.o.) experiments, the extract and rutin were suspended in water close to the time for oral gavage dosing. […] Rutin doses below 1.45 (i.v.) or 75 (p.o.) mg/kg could not show enough quantifiable analytical signals in blood plasma. For the extract, the doses were close to the active ones, according to previous studies by our group.
Samples of the animals’ blood (approximately 250 µL) were taken by puncture in the lateral tail vein and collected in heparinized tubes at times 0, 0.05, 0.166, 0.333, 0.5, 0.75, 1, 1.5, 2, 3, 4, 6, 8, and 12 h for the i.v. experiments and at times 0, 0.083, 0.25, […], 0.75, 1, 2, 3, 4, 6, 8, 10, 12, and 24 h for the p.o. experiments.
Blood plasma aliquots (50 µL) were added to a chrysin standard solution (internal standard (IS)) at a final concentration of 1000 ng/mL. Proteins were precipitated with methanol (1:2 v:v), and clear supernatants were obtained by centrifugation at 1200× g and at 4 °C for 15 min; 6 µL of each aliquot was used for instrumental analyses. Another 50 µL of blood plasma aliquots with the IS were treated with β-glucuronidase/arylsulfatase (120 Fishman units) in order to indirectly quantify the Q3OG and quercetin-3-O-sulfate (Q3OS) present in these samples by conversion into the parent quercetin (deconjugation). The deconjugation reaction was promoted by incubating the samples with the enzymes at pH 5.5 and 37 °C for 30 min. Reactions with the Q3OG standard (10,000 ng/mL) and blank blood plasma were included in each analysis set as positive and negative controls, respectively. After the reaction, proteins were precipitated, as indicated above.
Rutin and quercetin quantification was carried out by UHPLC-UV using a Chromaster RS chromatograph (Hitachi, Tokyo, Japan) and a Kinetex® EVO C18 column (2.6 µm, 100 × 2.1 mm; Phenomenex, Torrance, CA, USA) with an oven setting at 30 °C and a UV detector at 260 nm. The mobile phase consisted of 0.1% formic acid in water (A) and in acetonitrile (B), flowing at 0.5 mL/min in a gradient from 75% A to 65% A up to 9.3 min and 5 min of re-equilibration. The method was validated according to FDA guidelines.
The PK parameters of rutin and quercetin (produced by deconjugation of Q3OG and Q3OS) were first determined by non-compartmental analysis (NCA) using the software program Pkanalix 2019R1 (Lixoft®, Paris, France), set to linear trapezoidal integral mode. The area under the curve to infinity (AUC0-INF), clearance (Cl), volume of distribution at the steady state (Vdss), volume of distribution associated with the terminal phase (Vdz), first-order rate constant of elimination (k), terminal half-life (t1/2), mean residence time (MRT), maximum observed concentration (Cmax), and time of maximum observed concentration (tmax) were determined for the analytes detected for each intervention.

Data set [2] is described as follows: Pharmacokinetics of quercetin (deconjugated Q3OG and Q3OS) after oral administration, non-compartmental analysis. It is filed as in vivo, Wistar rats. Conditions: p.o.; only quercetin after deconjugation of Q3OG and Q3OS was measurable. Here is the method: as §1
For intravenous (i.v.) administration, the extract was prepared in sodium chloride solution (0.9% NaCl), vortexed, and sonicated 3–4 times for 15 min. Rutin was first dissolved in DMSO and then diluted in 0.9% NaCl. The clear solutions were administrated via the lateral tail vein of the rats. […] Rutin doses below 1.45 (i.v.) or 75 (p.o.) mg/kg could not show enough quantifiable analytical signals in blood plasma. […]
Blood plasma aliquots (50 µL) were added to a chrysin standard solution (internal standard (IS)) at a final concentration of 1000 ng/mL. […] Another 50 µL of blood plasma aliquots with the IS were treated with β-glucuronidase/arylsulfatase (120 Fishman units) in order to indirectly quantify the Q3OG and quercetin-3-O-sulfate (Q3OS) present in these samples by conversion into the parent quercetin (deconjugation). […]

A short description of data set [3]: Population pharmacokinetic modeling of rutin, intravenous administration. It is filed as in vivo, Wistar rats. The settings on record: rutin i.v.; for k12 pop / k21 pop / k pop / V_pop: Table S1. Here is the method:
Population pharmacokinetic (PopPK) modeling for rutin and quercetin (produced by deconjugation of Q3OG and Q3OS) was performed using the software program Monolix 2019R1 (Lixoft®, Paris, France). One- and two-compartment structural models with first-order elimination were evaluated, and double first-order absorption was included for the oral dosing experiments. Analyses of the categorical covariates (pure rutin, extract, and doses) were performed, and those that were significant were added to the model (p < 0.05 for Pearson’s and Wald tests with stochastic approximation). Correlations between random effects of the parameters were also tested and added to the model, where appropriate (p < 0.05 for t-test). The final model, including the model of the residual error, was selected based on the observation of individual fit plots, Akaike’s information criteria (AIC) values, visual assessment of the observation-versus-prediction plot, the precision of the estimated parameters, and evaluation of the distribution of residuals. The model was internally validated by a visual predictive check (VPC) with 1000 simulated data.
The general model equation for the PK parameters was (2) Pi=Ppop+βcovariate n+ηi,p, where Pi is the individual parameter, Ppop is the population parameter, β is a parameter representing the variability due to the significant covariate n, and η(i,p) is the individual deviation from Ppop. According to the probability distribution of individual parameters, P in the equation could be expressed as logP or logitP (logP/((1 − P)).
Rutin (i.v.) from both sources was better fitted to a two-compartment model described by the following parameters: volume of the central compartment (V), k, and the distribution rate constants k12 and k21 (Figure 3a). The […] differential equations representing this model are expressed in Equations (3) and (4), where X1 and X2 are the amounts of the drug in the central and peripheral compartments, respectively. (3) dX1/dt=k21X2−k12+kX1 (4) dX2/dt=k12X1−k21X2
The population parameters in Table 4 correspond to those of pure rutin (for the dosage set) that was used as a reference in the analysis of covariates. A similarity was noted between the values for Vpop (0.0646 L/kg) and Vdz of pure rutin from the NCA, especially at 2.9 mg/kg (0.068 L/kg). The Clpop parameter, estimated from Vpop and kpop, was equivalent to the Cl of pure rutin from the NCA (in both cases 0.095 L/h/kg for the set of doses). […] Equations (5)–(8) describe the model of covariates, where η is the individual deviation from Ppop. (5) log(V/1−V)=log(Vpop/1−Vpop)+βVGEXT+ηV (6) logk=logkpop+βkGEXT+ηk (7) logk12=logk12pop (8) logk21=logk21pop

On the set-up of data set [4]: method as in doi:10.1016/j.tifs.2017.07.008, PMID 32162346, PMID 30614249. The settings on record: low solubility and low permeability; cited from earlier work.
Data set [5] in a line: Stability in plasma (bioanalytical method validation). The data set is classed as in vitro ADME, rats. Conditions: Wistar, rat; plasma at acidic pH; 2 h at 4 °C, 30 d at −80 °C, and 3 freeze/thaw cycles. Here is the method:
Rutin and quercetin quantification was carried out by UHPLC-UV using a Chromaster RS chromatograph (Hitachi, Tokyo, Japan) and a Kinetex® EVO C18 column (2.6 µm, 100 × 2.1 mm; Phenomenex, Torrance, CA, USA) with an oven setting at 30 °C and a UV detector at 260 nm. The mobile phase consisted of 0.1% formic acid in water (A) and in acetonitrile (B), flowing at 0.5 mL/min in a gradient from 75% A to 65% A up to 9.3 min and 5 min of re-equilibration. The method was validated according to FDA guidelines. The UHPLC-UV method used for rutin and quercetin quantification in the blood plasma samples was selective and specific for these analytes and for the IS (Figure S2) and met all the criteria of the FDA guidelines. Linearity was described for the equations y = 0.00042x + 0.00910 (r^2 0.9996) and y = 0.00056 − 0.00767 (r^2 0.99980) for rutin and quercetin, respectively, at the concentration range from 100 to 10,000 ng/mL with a 1/x^2 weighting factor. Accuracy and precision were ≥85.6% (as recovery) and ≤7.2% (as variation coefficient), respectively, for both analytes, and these parameters were not affected by dilutions of over-concentrated samples up to 20 times the upper limit of quantification (recovery ≥ 86.3%).

Where [6] appears, read: rutin in plasma, pure rutin i.v. 1.45 mg/kg.
[7] abbreviates: rutin in plasma, pure rutin i.v. 2.9 mg/kg.
[8] abbreviates: run Pure rutin and extract model: final model.
[9] abbreviates: run Pure rutin and extract model: model of covariate 1.
Setting [10] is: run Pure rutin: one compartment model, first order elimination.
Setting [11] is: run Pure rutin: selection of model error and final model.
The mark [12] stands for this setting: run Pure rutin: two-compartment model, first order elimination.
[13] abbreviates: two-compartment popPK model, pure rutin (dosage set) as reference.

On to `C[C@@H]1O[C@@H](OC[C@H]2O[C@@H](Oc3c(-c4ccc(O)c(O)c4)oc4cc(O)cc(O)c4c3=O)[C@H](O)[C@@H](O)[C@@H]2O)[C@H](O)[C@H](O)[C@H]1O` [Rutin, quercetin-3-O-rutinoside], for which, in data set [1] (setting [6]), the AUC(0-inf) was determined as 14900 ng·h/mL, the mean residence time (MRT) turned out to be 64.8 ± 10.6 min, the half-life is 39.6 ± 7.8 min and the Vd worked out at 0.11 ± 0.0306 L/kg. In data set [1] (setting [6]), the “AUC/dose × 10^−3” value is given as 10,243.52 ± 1743.478 h/L, the Vdz is listed as 0.096 ± 0.027 L/kg and the k is 1.08 ± 0.195 h⁻¹. Moreover, the clearance in data set [1] (rutin in plasma, pure rutin i.v. 1.45 mg/kg, read-out: Cl (converted)) is 1.67 mL/min/kg. In addition, in data set [1] (setting [7]), the AUC(0-inf) turned out to be 33900 ng·h/mL, the MRT stood at 48.6 ± 3.18 min, the half-life is 32.4 ± 3.72 min and the Vd was determined as 0.07 ± 0.009 L/kg. Moreover, in data set [1] (setting [7]), the “AUC/dose × 10^−3” value is listed as 11,701.24 ± 992.522 h/L and the k came to 1.29 ± 0.159 h⁻¹. The clearance in data set [1] (rutin in plasma, pure rutin i.v. 2.9 mg/kg, read-out: Cl (converted)) was 1.5 mL/min/kg. Moreover, the clearance in data set [1] (plasma, rutin i.v., pure rutin, set of doses, read-out: Cl from the NCA (converted)) was 1.58 mL/min/kg. Further, the Vdz in data set [1] (rutin in plasma, pure rutin i.v. 2.9 mg/kg, 2.9 mg/kg) amounted to 0.068 ± 0.012 L/kg. The molecule further returned a Vdz in data set [1] (rutin in plasma, pure rutin i.v. 2.9 mg/kg, listed as pure rutin, 2.9 mg/kg) of 0.068 L/kg. For the same molecule, the “plasma concentrations of rutin or free quercetin after oral administration” value in data set [2] was “did not allow measurable plasma concentrations of rutin or free quercetin”. In data set [3] (setting [8]), this molecule had a k12 pop of 2.6 h⁻¹, a k21 pop of 13.6 h⁻¹ and a k pop of 1.47 h⁻¹. Besides, in data set [3] (setting [9]), the V_pop is given as 5.9 e-5, the k12 pop stood at 2.62 h⁻¹, the k21 pop came out at 9.67 h⁻¹ and the k pop was 1.58 h⁻¹. In addition, in data set [3] (setting [10]), the V_pop is 7.81 e−5 and the k pop worked out at 1.22 h⁻¹. In data set [3] (setting [11]), this molecule yielded a V_pop of 6.4e -5, a k12 pop of 2.5 h⁻¹, a k21 pop of 16.8 h⁻¹ and a k pop of 1.48 h⁻¹. Further, in data set [3] (setting [12]), the V_pop amounted to 5.89e -5, the k12 pop came out at 5.24 h⁻¹, the k21 pop is 19.4 h⁻¹ and the k pop stood at 1.61 h⁻¹. For the same molecule, in data set [3] (estimated from Vpop and kpop, set of doses), the Clpop is 1.58 mL/min/kg. Further, in data set [3] (setting [13]), the “Vpop (volume of the central compartment)” value was found to be 0.0646 L/kg, the k12_pop came to 2.6 h⁻¹, the k21_pop came out at 13.6 h⁻¹ and the “kpop (first-order rate constant of elimination)” value came out at 1.47 h⁻¹. Besides, in data set [4], the “biopharmaceutical classification system class” value is recorded as “class IV”.

In data set [5], `O=c1c(O)c(-c2ccc(O)c(O)c2)oc2cc(O)cc(O)c12` [quercetin] had a recovery of no less than 87.8%.
